What was measured:
gastric cancer = settings: monotherapy; cited from earlier work
implanted tumors = settings: mouse; cited from earlier work
renal cancer patients = settings: monotherapy; cited from earlier work
[1] = Clinical tolerability of crenolanib, single agent and with chemotherapy; assay type: in vivo; settings: single agent and combined with chemotherapy; most common adverse events gastrointestinal toxicities, elevated liver enzymes and bilirubin, edema/effusions
From the text: Unlike axitinib, VEGF/VEGFR antibodies are associated with minimal toxicity and the combination of these antibodies and chemotherapy is very well-tolerated. In particular, axinitinib monotherapy (in renal cancer patients) is associated with notable toxicities, including all-grade fatigue, anorexia, nausea, diarrhea and hand-foot syndrome in >25% of patients. Additionally, paclitaxel is less myelosuppressive than docetaxel. These improved toxicities support the combination of crenolanib and an alternative VEGFR inhibitor (including ramucirumab) in addition to and chemotherapy in patients with advanced cancers.

[2] = system: tumor interstitial pressure; settings: rat model; cited from earlier work
tumors = settings: treatment with imatinib; cited from earlier work

ramucirumab: antibody against VEGF receptor 2 (VEGFR2)
progression-free survival (PFS) improvement over placebo (gastric cancer): 0.8 months
response rate (RR) (gastric cancer): 3%

Cc1cc(C)c(/C=C2\C(=O)Nc3ccccc32)[nH]1 [SU5416]
effect on established tumor blood vessels (implanted tumors): failed to induce regression of established blood vessels
effect on tumor growth (implanted tumors): prevented tumor growth

CNC(=O)c1ccccc1Sc1ccc2c(/C=C/c3ccccn3)n[nH]c2c1 [axinitinib]
patients with all-grade fatigue, anorexia, nausea, diarrhea and hand-foot syndrome (renal cancer patients): > 25%

CC1(COc2ccc3c(c2)ncn3-c2ccc3cccc(N4CCC(N)CC4)c3n2)COC1 [crenolanib, 4-Piperidinamine, 1-[2-[5-[(3-methyl-3-oxetanyl)methoxy]-1H-benzimidazol-1-yl]-8-quinolinyl]]
tolerability [1]: generally well tolerated

Cc1[nH]c(/C=C2\C(=O)Nc3ccccc32)c(C)c1CCC(=O)O [SU6668]
effect on established tumor blood vessels (implanted tumors): regression of established tumor vessels
effect on tumor growth (implanted tumors): suppression of tumor growth

Cc1ccc(NC(=O)c2ccc(CN3CCN(C)CC3)cc2)cc1Nc1nccc(-c2cccnc2)n1 [Imatinib]
effect on capillary-to-interstitium transport of solutes [2]: increase the capillary-to-interstitium transport of solutes
effect on interstitial hypertension [2]: decrease interstitial hypertension
effect on anti-tumor effect of paclitaxel (tumors): increased anti-tumor effect of paclitaxel
effect on paclitaxel uptake by the tumors (tumors): increased paclitaxel uptake by the tumors

— patent US11602533B2, “Crenolanib combination therapy” (Arog Pharmaceuticals, Inc., priority 2018, dated 2023)
